In article PMC2787382 (The Journal of Biological Chemistry, 2009):

Experiments:
dP2XB = biological target: T1, dP2XB (Dictyostelium discoideum, UniProt Q553Y1); experiment: two-electrode voltage clamp, Xenopus oocytes, peak current; type: cell-based
T1 sequence (Q553Y1 1-369): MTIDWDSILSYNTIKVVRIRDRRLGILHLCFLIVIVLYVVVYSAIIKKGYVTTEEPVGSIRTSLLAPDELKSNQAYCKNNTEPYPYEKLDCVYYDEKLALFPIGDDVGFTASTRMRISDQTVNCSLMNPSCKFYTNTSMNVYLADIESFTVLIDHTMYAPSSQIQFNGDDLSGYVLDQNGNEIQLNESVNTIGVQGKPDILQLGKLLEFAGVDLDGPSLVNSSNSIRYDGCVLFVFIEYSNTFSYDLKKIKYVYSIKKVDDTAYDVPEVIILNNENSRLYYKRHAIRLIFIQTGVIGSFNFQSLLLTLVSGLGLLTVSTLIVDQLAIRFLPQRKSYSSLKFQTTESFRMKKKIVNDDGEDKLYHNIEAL

dP2XA = dP2XA (Dictyostelium discoideum, UniProt Q86JM7); experiment: as above; type: cell-based
dP2XE [1] = biological target: T2, dP2XE (Dictyostelium discoideum, UniProt Q54JH4); experiment: cell-based
T2 sequence (Q54JH4 1-388): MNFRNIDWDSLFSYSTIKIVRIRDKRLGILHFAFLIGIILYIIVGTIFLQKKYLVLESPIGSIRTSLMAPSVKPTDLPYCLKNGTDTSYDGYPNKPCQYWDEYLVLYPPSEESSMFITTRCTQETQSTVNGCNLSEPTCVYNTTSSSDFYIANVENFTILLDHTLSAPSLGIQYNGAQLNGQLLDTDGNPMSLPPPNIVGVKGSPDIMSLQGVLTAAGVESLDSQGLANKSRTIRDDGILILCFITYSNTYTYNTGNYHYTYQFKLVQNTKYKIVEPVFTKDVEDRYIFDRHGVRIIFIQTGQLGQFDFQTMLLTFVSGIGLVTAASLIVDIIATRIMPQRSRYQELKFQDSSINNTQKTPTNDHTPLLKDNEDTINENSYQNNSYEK

dP2XE [2] = biological target: T2, dP2XE; experiment: two-electrode voltage clamp, Xenopus oocytes, peak current; type: cell-based; conditions: weak partial agonist; ND98K+, pH 6.2, −70 mV, room temperature

Sequence of dP2XA (Q86JM7 whole entry): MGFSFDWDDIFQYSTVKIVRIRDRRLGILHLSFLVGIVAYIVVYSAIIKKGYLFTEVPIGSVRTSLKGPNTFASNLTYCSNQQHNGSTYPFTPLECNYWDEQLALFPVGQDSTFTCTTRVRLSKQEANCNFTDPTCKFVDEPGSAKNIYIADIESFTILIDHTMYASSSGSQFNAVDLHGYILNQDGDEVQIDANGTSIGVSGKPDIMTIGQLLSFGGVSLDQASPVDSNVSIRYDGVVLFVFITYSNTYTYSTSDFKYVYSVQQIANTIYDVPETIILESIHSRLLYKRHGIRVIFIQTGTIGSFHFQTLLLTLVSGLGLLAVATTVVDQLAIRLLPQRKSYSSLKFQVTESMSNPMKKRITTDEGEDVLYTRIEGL

SMILES	EC50 (dP2XB)	EC50 (dP2XA)	EC50 (dP2XE [1])	maximal response, % that of ATP (dP2XE [2])
Nc1ncnc2c1ncn2[C@@H]1O[C@H](COP(=O)(O)OP(=O)(O)OP(=O)(O)O)[C@@H](O)[C@H]1O [ATP]	266 µM	97 µM	511 µM	
Nc1ncnc2c1ncn2[C@@H]1O[C@H](COP(=O)(O)OP(=O)(O)NP(=O)(O)O)[C@@H](O)[C@H]1O [β,γ-Imido-ATP]	85 µM	3.1 µM		22.3 ± 6.4%
